Experiment [1] has as its target Leucine-rich repeat serine/threonine-protein kinase 2 [G2019S] (Homo sapiens, UniProt Q5S007, G2019S). Description: LRRK2 Wild-Type and G2019S Kinase Activity Assay. Here is the method:
(§1) The LRRK2 kinase was obtained from Invitrogen (Life Technologies Corporation) and comprises residue 970 to 2527 of the full length human wild-type LRRK2 kinase, or a similar sequence with the G2019S mutation. As discussed above, this mutation increases the kinase activity relative to the wild type. The kinase reactions were performed in a 20 uL volume in 384-well plates. The kinase reaction buffer consisted of 50 mM Tris pH 8.5, 0.01% BRIJ-35, 10 mM MgCl2, 1 mM EGTA, and 2 mM DTT.In the assay, 1 nM LRRK2 WT or 250 pM LRRK2 G2019S kinase in kinase reaction buffer was incubated with the test compound (typically at 0 to 30 uM) for 30 minutes before the kinase reaction was initiated by addition of 1.3 mM ATP and 0.4 uM fluorescein-LRRKtide. The reaction mixture (20 ul total volume) was incubated for 3.5 h (for LRRK2 WT) and 3 h (for LRRK2 G2019S) at 30 C., before the reaction was terminated by addition of 10 mM EDTA and 1 nM terbium-labelled anti-phospho-LRRKtide antibody (final volume […]). The mixture was further incubated for 30 minutes at RT. TR-FRET was measured by excitation of the terbium-donor with 340 nm light and subsequent (delay time 100 us) measurement of terbium and fluorescein emission at 495 nm and 520 nm, respectively, over a time window of 1000 us. The measurement was repeated 30 times for fluorescein and 30 times for terbium emission with a 1000 us time window between repeats. TR-FRET measurements were performed on a Biotek Synergy plate. The TR-FRET signal was calculated as the emission-ratio at 520 nm over 495 nm.

Experiment [2] concerns the target Leucine-rich repeat serine/threonine-protein kinase 2 (Homo sapiens, UniProt Q5S007). The experiment can be described thus: LRRK2 Wild-Type and G2019S Kinase Activity Assay. Here is the method: as §1

Results on 35 compounds are retold here after BindingDB's records for patent US117808 (H. Lundbeck, 2023).

Several values for one entry are separate records, joined by “and”; a condition that tells them apart may be missing. Identical values can stand only once.

Chain of Leucine-rich repeat serine/threonine-protein kinase 2 (Q5S007 whole entry): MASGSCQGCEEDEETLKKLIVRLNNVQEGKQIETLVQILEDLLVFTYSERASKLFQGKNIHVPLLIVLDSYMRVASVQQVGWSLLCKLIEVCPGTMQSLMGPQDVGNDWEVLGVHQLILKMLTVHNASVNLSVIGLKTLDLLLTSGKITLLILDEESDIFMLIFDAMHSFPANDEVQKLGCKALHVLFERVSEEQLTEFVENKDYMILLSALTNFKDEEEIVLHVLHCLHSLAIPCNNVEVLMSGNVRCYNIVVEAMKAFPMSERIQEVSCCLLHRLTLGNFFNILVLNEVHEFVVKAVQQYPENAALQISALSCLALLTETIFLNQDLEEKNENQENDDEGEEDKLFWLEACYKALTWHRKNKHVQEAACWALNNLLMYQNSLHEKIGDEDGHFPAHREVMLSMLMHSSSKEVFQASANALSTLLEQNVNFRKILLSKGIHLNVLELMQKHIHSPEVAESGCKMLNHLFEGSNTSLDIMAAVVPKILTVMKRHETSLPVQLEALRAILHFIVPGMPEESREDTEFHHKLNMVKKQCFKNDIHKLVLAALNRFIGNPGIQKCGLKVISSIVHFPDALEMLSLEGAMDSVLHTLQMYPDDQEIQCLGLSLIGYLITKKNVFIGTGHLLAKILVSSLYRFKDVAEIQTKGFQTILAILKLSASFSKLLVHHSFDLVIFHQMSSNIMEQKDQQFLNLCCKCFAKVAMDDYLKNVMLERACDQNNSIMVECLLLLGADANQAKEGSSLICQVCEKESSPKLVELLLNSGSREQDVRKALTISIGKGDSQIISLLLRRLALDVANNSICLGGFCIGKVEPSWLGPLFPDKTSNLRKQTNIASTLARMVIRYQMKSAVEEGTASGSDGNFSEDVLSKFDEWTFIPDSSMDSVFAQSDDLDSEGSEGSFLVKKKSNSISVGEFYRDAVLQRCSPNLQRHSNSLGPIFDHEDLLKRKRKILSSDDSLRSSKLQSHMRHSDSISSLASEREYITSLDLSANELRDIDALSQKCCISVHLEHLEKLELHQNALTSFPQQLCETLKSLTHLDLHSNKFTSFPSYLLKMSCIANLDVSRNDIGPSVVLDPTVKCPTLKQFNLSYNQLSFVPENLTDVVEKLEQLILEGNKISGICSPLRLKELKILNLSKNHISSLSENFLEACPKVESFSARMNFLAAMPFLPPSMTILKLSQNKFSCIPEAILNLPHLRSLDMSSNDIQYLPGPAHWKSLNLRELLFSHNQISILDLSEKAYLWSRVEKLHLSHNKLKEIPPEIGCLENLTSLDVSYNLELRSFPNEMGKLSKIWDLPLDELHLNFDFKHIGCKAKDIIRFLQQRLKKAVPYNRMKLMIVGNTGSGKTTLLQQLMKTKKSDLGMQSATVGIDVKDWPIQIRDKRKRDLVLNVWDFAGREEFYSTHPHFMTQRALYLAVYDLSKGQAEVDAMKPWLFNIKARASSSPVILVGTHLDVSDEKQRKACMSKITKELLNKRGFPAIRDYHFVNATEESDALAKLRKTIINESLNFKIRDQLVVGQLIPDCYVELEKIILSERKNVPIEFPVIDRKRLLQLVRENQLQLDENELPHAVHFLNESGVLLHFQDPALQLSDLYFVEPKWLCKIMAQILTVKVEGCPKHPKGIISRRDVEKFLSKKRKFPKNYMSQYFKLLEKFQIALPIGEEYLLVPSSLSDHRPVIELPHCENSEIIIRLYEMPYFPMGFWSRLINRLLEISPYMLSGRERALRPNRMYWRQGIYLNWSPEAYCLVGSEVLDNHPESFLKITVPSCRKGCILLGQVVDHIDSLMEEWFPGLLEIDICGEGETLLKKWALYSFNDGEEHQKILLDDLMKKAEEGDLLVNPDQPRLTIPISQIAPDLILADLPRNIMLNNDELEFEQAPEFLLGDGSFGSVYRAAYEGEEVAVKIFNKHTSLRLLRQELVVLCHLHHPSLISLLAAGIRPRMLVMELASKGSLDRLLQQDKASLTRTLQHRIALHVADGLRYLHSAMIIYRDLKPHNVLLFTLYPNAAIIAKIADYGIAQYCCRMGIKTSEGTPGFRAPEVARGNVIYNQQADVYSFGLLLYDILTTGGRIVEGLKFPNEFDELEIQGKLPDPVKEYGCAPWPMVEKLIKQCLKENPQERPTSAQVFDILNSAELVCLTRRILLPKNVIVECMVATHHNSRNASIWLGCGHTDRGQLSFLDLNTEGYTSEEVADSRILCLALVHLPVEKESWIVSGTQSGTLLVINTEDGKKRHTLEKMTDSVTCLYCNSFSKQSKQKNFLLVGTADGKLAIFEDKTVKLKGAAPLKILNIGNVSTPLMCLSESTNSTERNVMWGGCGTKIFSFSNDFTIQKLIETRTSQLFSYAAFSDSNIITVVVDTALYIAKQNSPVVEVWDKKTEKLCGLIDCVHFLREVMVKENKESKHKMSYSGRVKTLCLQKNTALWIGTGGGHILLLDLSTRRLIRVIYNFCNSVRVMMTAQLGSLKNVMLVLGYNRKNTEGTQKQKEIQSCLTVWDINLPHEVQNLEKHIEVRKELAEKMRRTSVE
Chain of Leucine-rich repeat serine/threonine-protein kinase 2 [G2019S] (Q5S007 whole entry G2019S): as the sequence (Q5S007 whole entry) above, with G2019S counted along it

For orientation: IC50 means the concentration that inhibits the measured activity by half. `Cc1c2c(nn1[C@H]1CCCOC1)OCCCn1nc(Cl)c3cnc(nc31)N2` (single isomer, unassigned) [US11780851, Example 60]: the values for the IC50 in experiment [1] and in experiment [2] were 9 nM and 25 nM, respectively.
The like results for `Cc1c2c(nn1C1CCOCC1)OCCCn1nc(Br)c3cnc(nc31)N2` [US11780851, Example 6] were, in that order, 2.2 nM and 8 nM.
In the same order, the values of `Cc1c2c(nn1CC1(C)COC1)OCCCn1nc(Cl)c3cnc(nc31)N2` [US11780851, Example 12] are 12 nM and 32 nM.
With `Cc1c([N+](=O)[O-])c(OCCCn2nc(Cl)c3cnc(Cl)nc32)nn1C1CCOCC1` [US11780851, Example 15], the concentration for half-maximal inhibition (IC50) in experiment [2] is 9.6 nM and 6.8 nM.
`Cc1c2c(nn1[C@@H]1CCO[C@@H](C)C1)OCCCn1nc(Cl)c3cnc(nc31)N2` [US11780851, Example 19]: the IC50 in experiment [1] came out at 3.9 nM; in experiment [2], 13 nM.
The like results for `Cc1c2c(nn1C1CCOCC1)OCCCn1nc(Cl)c3cnc(nc31)N2` [US11780851, Example 20] were, in that order, 2.4 nM and 9.8 nM.
The like results for `Cc1c2c(nn1[C@H]1CCOC[C@H]1C)OCCCn1nc(Cl)c3cnc(nc31)N2` [US11780851, Example 21] were, in that order, 3.7 nM and 10 nM.
The like results for `Cc1c2c(nn1[C@@H]1CCOC[C@H]1C)OCCCn1nc(Cl)c3cnc(nc31)N2` [US11780851, Example 22] were, in that order, 3.5 nM and 10 nM.
For the compound `Cc1c2c(nn1[C@H]1CCOC[C@@H]1C)OCCCn1nc(Cl)c3cnc(nc31)N2` [US11780851, Example 23], the figures for the IC50 in experiment [1] and in experiment [2] were 20 nM and 44 nM, respectively.
`Cc1c2c(nn1[C@@H]1CCCCOC1)OCCCn1nc(Cl)c3cnc(nc31)N2` [US11780851, Example 29]: the IC50 was 7.3 nM and 4.3 nM in experiment [1]; 25 nM and 14 nM in experiment [2].
Regarding `Cc1c2c(nn1C1CCCCOC1)OCCCn1nc(Cl)c3cnc(nc31)N2` (centres undefined) [US11780851, Example 30], the IC50 in experiment [1] amounted to 4 nM; in experiment [2] it was 12 nM.
The like results for `Cc1c2c(nn1[C@H]1CCOC[C@@H]1F)OCCCn1nc(Cl)c3cnc(nc31)N2` [US11780851, Example 31] were, in that order, 2.4 nM and 5.6 nM.
In the same order, the values of `Cc1c2c(nn1[C@@H]1CCOC[C@@H]1F)OCCCn1nc(Cl)c3cnc(nc31)N2` [US11780851, Example 32] are 6.1 nM and 15 nM.
On to `Cc1c2c(nn1C13CC(C(N)=O)(C1)C3)OCCCn1nc(Cl)c3cnc(nc31)N2` [US11780851, Example 33], for which the values for the IC50 in experiment [1] and in experiment [2] were 5.9 nM and 18 nM, respectively.
As for `Cc1c2c(nn1C1(C(N)=O)CC1)OCCCn1nc(Cl)c3cnc(nc31)N2` [US11780851, Example 36], the figures for the IC50 in experiment [1] and in experiment [2] were 7.2 nM and 23 nM, respectively.
The like results for `Cc1c2c(nn1C1C3COCC31)OCCCn1nc(Cl)c3cnc(nc31)N2` (centres undefined) [US11780851, Example 38] were, in that order, 11 nM and 28 nM.
The like results for `Cc1c2c(nn1C1CC1(F)F)OCCCn1nc(Cl)c3cnc(nc31)N2` (centres undefined) [US11780851, Example 39] were, in that order, 7.8 nM and 19 nM.
For the compound `Cc1c2c(nn1[C@H]1CC1(F)F)OCCCn1nc(Cl)c3cnc(nc31)N2` [US11780851, Example 40], the half-inhibitory concentration (IC50) was 12 nM in experiment [1] and 28 nM in experiment [2].
In the same order, the values of `Cc1c([N+](=O)[O-])c(OCCCn2nc(Cl)c3cnc(Cl)nc32)nn1[C@H]1C[C@@H](C)O[C@@H](C)C1` [US11780851, Example 41] are 6.4 nM and 17 nM.
In the same order, the values of `Cc1c2c(nn1[C@@H]1CCOC(C)(C)C1)OCCCn1nc(Cl)c3cnc(nc31)N2` [US11780851, Example 43] are 5.3 nM and 17 nM.
In the same order, the values of `Cc1c2c(nn1C1CC3CCC(C1)O3)OCCCn1nc(Cl)c3cnc(nc31)N2` (centres undefined) [US11780851, Example 44] are 4.3 nM and 13 nM.
For the compound `Cc1c2c(nn1C1CCOC[C@@]1(C)F)OCCCn1nc(Cl)c3cnc(nc31)N2` (some centres undefined) [US11780851, Example 47], the values for the IC50 in experiment [1] and in experiment [2] were 3.1 nM and 13 nM, respectively.
The like results for `Cc1c2c(nn1C1CCOC[C@]1(C)F)OCCCn1nc(Cl)c3cnc(nc31)N2` (some centres undefined) [US11780851, Example 48] were, in that order, 18 nM and 90 nM.
In the same order, the values of `CO[C@H]1CC[C@H](n2nc3c(c2Br)Nc2ncc4c(Cl)nn(c4n2)CCCO3)CC1` [US11780851, Example 50] are 5.3 nM and 10 nM.
In the same order, the values of `Cc1c2c(nn1[C@H]1CCO[C@@H](C)C1)OCCCn1nc(Cl)c3cnc(nc31)N2` [US11780851, Example 51] are 3.6 nM and 11 nM.
`Cc1c2c(nn1[C@@H]1CCO[C@H](C)C1)OCCCn1nc(Cl)c3cnc(nc31)N2` [US11780851, Example 52]: the IC50 in experiment [1] was 10 nM; in experiment [2], 19 nM.
The like results for `Cc1c2c(nn1[C@H]1CCOC3(CC3)C1)OCCCn1nc(Cl)c3cnc(nc31)N2` [US11780851, Example 54] were, in that order, 0.88 nM and 2.6 nM.
In the same order, the values of `CCc1c2c(nn1[C@@H]1CCOCC1F)OCCCn1nc(Cl)c3cnc(nc31)N2` (some centres undefined) [US11780851, Example 55] are 1.5 nM and 5.6 nM.
The like results for `CCc1c2c(nn1[C@H]1CCOCC1F)OCCCn1nc(Cl)c3cnc(nc31)N2` (some centres undefined) [US11780851, Example 56] were, in that order, 2 nM and 4.9 nM.
As for `Cc1c2c(nn1[C@@H]1CCCOCC1)OCCCn1nc(Cl)c3cnc(nc31)N2` [US11780851, Example 59], the results for the IC50 in experiment [1] and in experiment [2] were 6.2 nM and 17 nM, respectively.
The like results for `Cc1c2c(nn1[C@@H]1CCCOC1)OCCCn1nc(Cl)c3cnc(nc31)N2` [US11780851, Example 61] were, in that order, 2.2 nM and 9.2 nM.
The like results for `F[C@@H]1COCC[C@H]1n1nc2c(c1Br)Nc1ncc3c(Cl)nn(c3n1)CCCO2` [US11780851, Example 62] were, in that order, 5.9 nM and 17 nM.
In the same order, the values of `F[C@H]1COCC[C@@H]1n1nc2c(c1Br)Nc1ncc3c(Cl)nn(c3n1)CCCO2` [US11780851, Example 63] are 4 nM and 11 nM.
On to `Clc1nn2c3nc(ncc13)Nc1c(nn([C@H]3CCOC4(CC4)C3)c1Br)OCCC2` [US11780851, Example 64], for which the IC50 in experiment [1] stood at 5 nM; in experiment [2], 11 nM.
On to `Clc1nn2c3nc(ncc13)Nc1c(nn([C@@H]3CCOC4(CC4)C3)c1Br)OCCC2` [US11780851, Example 65], for which the IC50 in experiment [1] came to 1.7 nM; in experiment [2], 4.8 nM.
